IC50 data for 27 compounds are collected here from US20260200919A1, “SUBSTITUTED AMINOPYRIDINE COMPOUNDS AND METHODS OF TREATING DISEASE USING SAME” (Atavistik Bio, Inc., priority 2023, published 2026).

Test [1] deals with T1, human recombinant kinase full-length AKT1 E17K (Homo sapiens, UniProt P31749, E17K).
T1 construct: Purified human recombinant kinase full-length AKT1 E17K was expressed in insect cells; made in house; host or cells: insect cells
Kind of test: AKT1 E17K kinase assay (TR-FRET, Lance). In kind it is biochemical. The settings on record: 0.6 nM AKT1 E17K, 50 nM Ulight-CREBtide, either 50 μM ATP or 2 mM ATP (not specified which), 60 min at RT. The method in brief:
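Full-length human AKT1 E17K (insect cell-expressed, PDPK1-activated; 0.6 nM) with 50 nM ULight-CREBtide in HEPES pH 7.5 with MgCl2 and DTT. ATP at 50 μM or 2 mM, 1% DMSO, 10-point dose response, 60 min at RT.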

The target of test [2] is T2, human recombinant kinase full-length wildtype AKT1 (Homo sapiens, UniProt P31749).
T2 construct: Purified human recombinant kinase full-length wildtype AKT1 was expressed in insect cells; made in house; host or cells: insect cells
The test is described as follows: AKT1 kinase assay (wildtype, TR-FRET, Lance). In kind it is biochemical. The settings on record: 0.6 nM wildtype AKT1, 50 nM Ulight-CREBtide, either 50 μM ATP or 2 mM ATP (not specified which), 60 min at RT. The method in brief: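 Insect-cell-expressed AKT1, activated in vitro by PDPK1, was used at 0.6 nM with 50 nM Ulight-CREBtide and 50 μM or 2 mM ATP in 50 mM HEPES pH 7.5, 1% DMSO, over a 10-point dose response.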

T1 sequence (P31749 whole entry E17K): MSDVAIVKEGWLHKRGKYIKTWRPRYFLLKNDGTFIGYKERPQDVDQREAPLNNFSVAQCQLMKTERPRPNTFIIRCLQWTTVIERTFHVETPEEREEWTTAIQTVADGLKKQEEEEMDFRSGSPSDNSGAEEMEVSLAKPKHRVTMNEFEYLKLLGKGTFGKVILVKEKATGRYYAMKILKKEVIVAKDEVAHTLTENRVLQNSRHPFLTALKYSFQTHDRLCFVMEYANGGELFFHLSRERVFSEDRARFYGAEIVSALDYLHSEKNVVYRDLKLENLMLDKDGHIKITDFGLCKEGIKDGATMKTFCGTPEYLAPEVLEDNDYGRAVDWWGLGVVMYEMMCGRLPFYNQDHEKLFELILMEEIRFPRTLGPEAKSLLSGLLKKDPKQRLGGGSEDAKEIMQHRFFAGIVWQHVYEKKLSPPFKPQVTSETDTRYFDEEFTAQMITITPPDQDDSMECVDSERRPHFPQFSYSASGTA
T2 sequence (P31749 whole entry): as the sequence (P31749 whole entry E17K) above, with K17E counted along it

For the compound `Nc1ncccc1-c1nc2ccc(-c3ccccc3)nc2n1-c1ccc(NC(=O)c2cccc(C(=O)O)c2F)c(F)c1` [Compound 65, 3-((4-(2-(2-aminopyridin-3-yl)-5-phenyl-3H-imidazo[4,5-b]pyridin-3-yl)-2-fluorophenyl)carbamoyl)-2-fluorobenzoic acid], the IC50 in test [1] was 200 to 500 nM; in test [2] it was less than 500 nM.

In the case of `Nc1ncccc1-c1nc2ccc(-c3ccccc3)nc2n1-c1ccc(NC(=O)c2cc(F)c(C(=O)O)c(F)c2)nc1` [Compound 150], the IC50 in test [1] is less than 50 nM; in test [2], less than 500 nM.

Turning to `Nc1ncccc1-c1nc2cc(C(F)(F)F)cnc2n1-c1ccc(CNC(=O)c2ccc(C(=O)O)cc2)cc1` [Compound 98, 4-((4-(2-(2-aminopyridin-3-yl)-6-(trifluoromethyl)-3H-imidazo[4,5-b]pyridin-3-yl)benzyl)carbamoyl)benzoic acid], the IC50 in test [1] was more than 500 nM; in test [2], less than 500 nM.

In the case of `C[C@@H](c1ccc(C(=O)O)cc1)N1CC(c2ccc(-n3c(-c4cccnc4N)nc4ccc(-c5ccccc5)nc43)cc2)C1` (single isomer, unassigned) [Compound 126], the IC50 in test [1] was more than 500 nM; in test [2], less than 500 nM.

In the case of `COC(=O)c1ccc([C@@H](C)N2CC(c3ccc(-n4c(-c5cccnc5N)nc5ccc(-c6ccccc6)nc54)cc3)C2)cc1` (single isomer, unassigned) [Compound 157], the IC50 in test [1] was more than 500 nM; in test [2], less than 500 nM.

In the case of `Nc1ncccc1-c1nc2ccc(-c3cccnc3)nc2n1-c1ccc(CNC(=O)c2ccc(CC(=O)O)cc2)cc1` [Compound 95, 2-(4-((4-(2-(2-aminopyridin-3-yl)-5-(pyridin-3-yl)-3H-imidazo[4,5-b]pyridin-3-yl)benzyl)carbamoyl)phenyl) acetic acid], the IC50 is 200 to 500 nM in test [1] and less than 500 nM in test [2].

Turning to `C[C@H](c1ccc(C(=O)O)cc1F)N1CC(c2ccc(-n3c(-c4cccnc4N)nc4ccc(-c5ccccc5)nc43)cc2)C1` [Compound 160], the half-inhibitory concentration (IC50) was 50 to 200 nM in test [1] and less than 500 nM in test [2].

Consider `Nc1ncccc1-c1nc2ccc(-c3ccccc3)nc2n1-c1ccc(NC(=O)c2cccc(C(=O)O)c2F)nc1` [Compound 61, 3-((5-(2-(2-aminopyridin-3-yl)-5-phenyl-3H-imidazo[4,5-b]pyridin-3-yl)pyridin-2-yl)carbamoyl)-2-fluorobenzoic acid], for which the IC50 in test [1] was 50 to 200 nM; in test [2], less than 500 nM.

In the case of `Nc1ncccc1-c1nc2cc(-c3cccnc3)cnc2n1-c1ccc(CNC(=O)c2ccc(CCC(=O)O)cc2)cc1` [Compound 92, 3-(4-((4-(2-(2-aminopyridin-3-yl)-6-(pyridin-3-yl)-3H-imidazo[4,5-b]pyridin-3-yl)benzyl)carbamoyl)phenyl) propanoic acid], the IC50 in test [1] is 200 to 500 nM; in test [2], less than 500 nM.

`Nc1ncccc1-c1nc2ccc(-c3ccccc3)nc2n1-c1ccc(NC(=O)c2ccc(C(=O)O)cc2F)nc1` [Compound 62, 4-((5-(2-(2-aminopyridin-3-yl)-5-phenyl-3H-imidazo[4,5-b]pyridin-3-yl)pyridin-2-yl)carbamoyl)-3-fluorobenzoic acid]: the IC50 is 50 to 200 nM in test [1] and less than 500 nM in test [2].

Regarding `CC(C)[C@@H](c1ccc(C(=O)O)cc1)N1CC(c2ccc(-n3c(-c4cccnc4N)nc4ccc(-c5ccccc5)nc43)cc2)C1` [Compound 162], the IC50 in test [1] was 200 to 500 nM; in test [2], less than 500 nM.

Consider `Nc1ncccc1-c1nc2cc(-c3cccc(NC(=O)c4ccccc4)c3)cnc2n1-c1ccc(CNC(=O)c2cccc(CC(=O)O)c2)cc1` [Compound 85, 2-(3-((4-(2-(2-aminopyridin-3-yl)-6-(3-benzamidophenyl)-3H-imidazo[4,5-b]pyridin-3-yl)benzyl)carbamoyl)phenyl) acetic acid], for which the IC50 in test [1] was 50 to 200 nM; in test [2], less than 500 nM.

For `Nc1ncccc1-c1nc2ccc(-c3ccccc3)nc2n1-c1ccc(NC(=O)c2cccc(CCC(=O)O)c2)cc1` [Compound 57, 3-(3-((4-(2-(2-aminopyridin-3-yl)-5-phenyl-3H-imidazo[4,5-b]pyridin-3-yl)phenyl)carbamoyl)phenyl) propanoic acid], the IC50 in test [1] was less than 50 nM; in test [2], less than 500 nM.

Turning to `Nc1ncccc1-c1nc2ccc(-c3ccccc3)nc2n1-c1ccc(CNC(=O)c2cccc(CC(=O)O)c2F)cc1` [Compound 34, 2-(3-((4-(2-(2-aminopyridin-3-yl)-5-phenyl-3H-imidazo[4,5-b]pyridin-3-yl)benzyl)carbamoyl)-2-fluorophenyl)acetic acid], the figures for the IC50 in test [1] and in test [2] were 200 to 500 nM and less than 500 nM, respectively.

Take `Cc1cc(C(=O)O)ccc1C(=O)Nc1ccc(-n2c(-c3cccnc3N)nc3ccc(-c4ccccc4)nc32)cn1` [Compound 63, 4-[[5-[2-(2-amino-3-pyridyl)-5-phenyl-imidazo[4,5-b]pyridin-3-yl]-2-pyridyl]carbamoyl]-3-methyl-benzoic acid]: the figures for the IC50 in test [1] and in test [2] were 200 to 500 nM and less than 500 nM, respectively.

Regarding `Nc1ncccc1-c1nc2ccc(-c3ccccc3)nc2n1-c1ccc(NC(=O)c2cccc(C(=O)O)c2F)cc1` [Compound 55, 3-[[4-[2-(2-amino-3-pyridyl)-5-phenyl-imidazo[4,5-b]pyridin-3-yl]phenyl]carbamoyl]-2-fluoro-benzoic acid], the results for the IC50 in test [1] and in test [2] were less than 50 nM and less than 500 nM, respectively.

Turning to `CC(C)Oc1ccc2nc(-c3cccnc3N)n(-c3ccc(NC(=O)c4ccc(C(=O)O)cc4)nc3)c2c1` [Compound 176, 4-[[5-[2-(2-amino-3-pyridyl)-6-isopropoxy-benzimidazol-1-yl]-2-pyridyl]carbamoyl]benzoic acid], the IC50 in test [1] and in test [2] was more than 500 nM in each case.

On to `Cc1cc(C(=O)Nc2ccc(-n3c(-c4cccnc4N)nc4ccc(-c5ccccc5)nc43)nc2C)ccc1C(=O)O` [Compound 181, 4-((6-(2-(2-aminopyridin-3-yl)-5-phenyl-3H-imidazo[4,5-b]pyridin-3-yl)-2-methylpyridin-3-yl)carbamoyl)-2-methylbenzoic acid], for which the IC50 in test [1] and in test [2] was more than 500 nM throughout.

In the case of `COC(=O)c1ccc([C@H](C)N2CC(c3ccc(-n4c(-c5cccnc5N)nc5ccc(-c6ccccc6)nc54)cc3)C2)cc1` (single isomer, unassigned) [Compound 158], the half-maximal inhibitory concentration (IC50) in test [1] was more than 500 nM; in test [2], less than 500 nM.

For the compound `COC(=O)CCc1cccc(C(=O)NCc2ccc(-n3c(-c4cccnc4N)nc4cc(-c5cccnc5)cnc43)cc2)c1` [Compound 93, methyl 3-(3-((4-(2-(2-aminopyridin-3-yl)-6-(pyridin-3-yl)-3H-imidazo[4,5-b]pyridin-3-yl)benzyl)carbamoyl)phenyl) propanoate], the results for the IC50 in test [1] and in test [2] were more than 500 nM and less than 500 nM, respectively.

For the compound `Nc1ncccc1-c1nc2ccc(-c3ccccc3)nc2n1-c1ccc(C(=O)NCc2cccc(CC(=O)O)c2)cc1` [Compound 52, 2-(3-((4-(2-(2-aminopyridin-3-yl)-5-phenyl-3H-imidazo[4,5-b]pyridin-3-yl)benzamido)methyl)phenyl)acetic acid], the IC50 in test [1] and in test [2] was more than 500 nM throughout.

As for `COc1ccc2nc(-c3cccnc3N)n(-c3ccc(CNC(=O)c4cccc(CC(=O)O)c4)cc3)c2c1` [Compound 104, 2-(3-((4-(2-(2-aminopyridin-3-yl)-6-methoxy-1H-benzo[d]imidazol-1-yl)benzyl)carbamoyl)phenyl) acetic acid], the IC50 in test [1] and in test [2] was more than 500 nM in each case.

Take `Nc1ncccc1-c1nc2ccc(-c3ccccc3)nc2n1-c1ccc(CNC(=O)c2ccc(CC(=O)O)cc2)cc1` [Compound 30, 2-(4-((4-(2-(2-aminopyridin-3-yl)-5-phenyl-3H-imidazo[4,5-b]pyridin-3-yl)benzyl)carbamoyl)phenyl)acetic acid]: the IC50 in test [1] is 50 to 200 nM; in test [2], less than 500 nM.

As for `NC(=O)c1cnc2c(c1)nc(-c1cccnc1N)n2-c1ccc(CNC(=O)c2cccc(CC(=O)O)c2)cc1` [Compound 97, 2-[3-[[4-[2-(2-amino-3-pyridyl)-6-carbamoyl-imidazo[4,5-b]pyridin-3-yl]phenyl]methylcarbamoyl]phenyl]acetic acid], the IC50 in test [1] and in test [2] was more than 500 nM in each case.

In the case of `Nc1ncccc1-c1nc2ccc(-c3ccccc3)nc2n1-c1ccc(CNC(=O)c2cccc(CC(=O)O)c2)cn1` [Compound 49, 2-(3-(((6-(2-(2-aminopyridin-3-yl)-5-phenyl-3H-imidazo[4,5-b]pyridin-3-yl)pyridin-3-yl)methyl)carbamoyl)phenyl)acetic acid], the IC50 in test [1] and in test [2] was more than 500 nM each time.

Regarding `Nc1ncccc1-c1nc2ccc(-c3ccccc3)nc2n1-c1ccc(NC(=O)c2ccc(C(=O)O)cc2)cc1` [Compound 53], the figures for the IC50 in test [1] and in test [2] were less than 50 nM and less than 500 nM, respectively.

`Nc1ncccc1-c1nc2ccc(-c3ccccc3)nc2n1-c1ccc(CNC(=O)c2cc(F)cc(C(=O)O)c2)cc1` [Compound 21, 3-((4-(2-(2-aminopyridin-3-yl)-5-phenyl-3H-imidazo[4,5-b]pyridin-3-yl)benzyl)carbamoyl)-5-fluorobenzoic acid]: the IC50 is less than 50 nM in test [1] and less than 500 nM in test [2].
